Measured values from US5663201A, “Desferrioxamine-B salts” (CIBA-GEIGY Corporation, priority 1992, dated 1997).
Counter-ions that a name gives are not always drawn. Like-named read-outs stand apart in the source and are kept apart here.

Assays:
[1] = intrinsic dissolution of tablets, Langenbucher flow-through apparatus; type: physicochemical; conditions: water, 25° C., listed as decanesulphonate
Procedure: Tablets are prepared from the salts of Examples 1 and 4 by compressing a mixture of 99 parts of the salt and 1 part of magnesium stearate in a 13mm die for 2 minutes under a pressure of 4×10^5 kPa. The intrinsic dissolution rates of the tablets are determined using a Langenbucher flow-through apparatus, with water at 25° C. as the dissolution medium. The amount of desferrioxamine-B dissolved in the medium is measured at intervals using a spectrophotometric assay at 215 nm.

[2] = type: physicochemical; conditions: n-octanol/water, 5000 µM
Procedure: (§1) The partition coefficients of the salts prepared in Examples 1 to 5 between n-octanol and water are determined by the `shake-flask` method of Leo et at, Chem. Rev., 71(6), 525 (1971).
The n-octanol and aqueous phases are mutually saturated prior to conducting the experiment. The desferrioxamine-B sulphonic acid addition salt is dissolved in the aqueous phase at a concentration of 0.005 mol/l and the partition experiment is performed by shaking the vessel containing the two phases until an equilibrium has been achieved. […] After equilibrium has been achieved, the sample is centrifuged to enable phase separation. Both organic and aqueous phases are analysed for desferrioxamine-B content via extraction of an appropriate aliquot, quenching with an aqueous (for assay of the aqueous phase) or methanolic (for assay of the n-octanol phase) solution of FeCl3, and measurement of the absorption of the characteristic ferrioxamine-B chelate at ca. 450 nm. Respective calibration plots (absorbance vs. concentration of desferrioxamine-B sulphonic acid salt) for the assay of both aqueous and organic phases show a linear response over the concentration range studied. The results obtained are as follows: […]

[3] = type: physicochemical; conditions: n-octanol/phosphate buffer, pH 7.4
Procedure: as §1
The n-octanol and aqueous phases are mutually saturated prior to conducting the experiment. The desferrioxamine-B sulphonic acid addition salt is dissolved in the aqueous phase at a concentration of 0.005 mol/l and the partition experiment is performed by shaking the vessel containing the two phases until an equilibrium has been achieved. […] After equilibrium has been achieved, the sample is centrifuged to enable phase separation. Both organic and aqueous phases are analysed for desferrioxamine-B content via extraction of an appropriate aliquot, quenching with an aqueous (for assay of the aqueous phase) or methanolic (for assay of the n-octanol phase) solution of FeCl3, and measurement of the absorption of the characteristic ferrioxamine-B chelate at ca. 450 nm. Respective calibration plots (absorbance vs. concentration of desferrioxamine-B sulphonic acid salt) for the assay of both aqueous and organic phases show a linear response over the concentration range studied. The results obtained are as follows:
The partition coefficients of the salts prepared in Examples 1 to 5 between n-octanol and an aqueous phosphate buffer at pH7.4 having an ionic strength of 0.31 mol/l are determined using the procedure of Examples 6-10. The results obtained are as follows:
The use of n-octanol/aqueous media partition coefficients as a model for the lipophilicity of drugs is well established (see the abovementioned Leo et al reference). The aqueous phase in Examples 11 to 15 simulates physiological conditions.

[4] = system: Daudi cell line (B-cell lymphoma); assay: iron-chelation bioassay: growth inhibiting effect on cells through iron removal, [3H] Thymidine uptake; type: cell-based; conditions: 72 hours, Control (0 μM): Ex 18 22297, Ex 19 23897, listed as decanesulphonate
Procedure: The iron-chelating properties of salts of the invention in a biological system are determined by means of a bioassay in which the growth inhibiting effect of the salts on cells through iron removal is measured by the uptake of radioactively labelled thymidine into the cells. The bioassay is carried out using a Daudi cell line (B-cell lymphoma), a Roswell Park Memorial Institute (RPMI) 1640 medium containing 1 µM ferric citrate and supplements as low iron washing medium and RPM11640 together with 5% by weight of foetal calf serum as passaging medium.
The cells are fed 24 hours before use. They are washed twice in the low iron washing medium to remove any excess iron and diluted with this medium to a concentration of 0.2×10^6 cells/0.180 ml. To 0.180 ml aliquots are added 0.02 ml of solutions of the desferrioxamine-B salts under test in phosphate-buffered saline (PBS) to give concentrations ranging from a Control containing no salt to a […] solution. The cells are then incubated at 37° C. in an atmosphere containing 5% by volume of carbon dioxide for 72 hours, being pulsed for the last 8 hours of that time with labelled [^3 H] Thymidine at 5 micro Ci/ml. The resulting cells are harvested and their radioactive disintegrations are counted for 10 minutes. The results are shown in the table below as the average of 4 separate experiments (except the Control result in Example 18 which is the average of 3 separate experiments).

Q: For `CC(=O)N(O)CCCCCNC(=O)CCC(=O)N(O)CCCCCNC(=O)CCC(=O)N(O)CCCCCN` [Example 1, decane-1-sulphonate/salt of desferrioxamine-B], which “% Desferrioxaine-B salt dissolved” value ([1]; 1 min) is on record?
A: Its value is 1.01%.

Q: What about the “% Desferrioxaine-B salt dissolved” value ([1]; 2 min) of the same compound?
A: The value was 1.65%.

Q: What about the “% Desferrioxaine-B salt dissolved” value ([1]; 5 min) of the same compound?
A: Its value is 2.90%.

Q: What about the “% Desferrioxaine-B salt dissolved” value ([1]; 10 min) of the same compound?
A: The value was 4.67%.

Q: And the “% Desferrioxaine-B salt dissolved” value ([1]; 15 min)?
A: The value was 6.17%.

Q: And the “% Desferrioxaine-B salt dissolved” value ([1]; 20 min)?
A: Its value is 7.50%.

Q: What about the “% Desferrioxaine-B salt dissolved” value ([1]; 30 min) of the same compound?
A: Its value is 9.97%.

Q: And the “% Desferrioxaine-B salt dissolved” value ([1]; 50 min)?
A: The value was 14.21%.

Q: And the “% Desferrioxaine-B salt dissolved” value ([1]; 75 min)?
A: The value was 18.80%.

Q: What about the “% Desferrioxaine-B salt dissolved” value ([1]; 100 min) of the same compound?
A: Its value is 22.92%.

Q: What about the “% Desferrioxaine-B salt dissolved” value ([1]; 125 min) of the same compound?
A: Its value is 26.62%.

Q: What about the “% Desferrioxaine-B salt dissolved” value ([1]; 150 min) of the same compound?
A: Its value is 30.13%.

Q: And the “% Desferrioxaine-B salt dissolved” value ([1]; 175 min)?
A: Its value is 33.49%.

Q: What about the “% Desferrioxaine-B salt dissolved” value ([1]; 200 min) of the same compound?
A: The value was 36.85%.

Q: And the “% Desferrioxaine-B salt dissolved” value ([1]; 225 min)?
A: The value was 39.97%.

Q: What about the “% Desferrioxaine-B salt dissolved” value ([1]; 250 min) of the same compound?
A: The value was 42.94%.

Q: And the “% Desferrioxaine-B salt dissolved” value ([1]; 275 min)?
A: The value was 45.87%.

Q: And the “% Desferrioxaine-B salt dissolved” value ([1]; 300 min)?
A: The value was 48.81%.

Q: What about the “Partition Coefficient” value [2] of the same compound?
A: The value was 0.366.

Q: And the “Partition Coefficient” value [3]?
A: The value was 0.060.

Q: What about the “Disintegrations Per Minute ([3H] Thymidine uptake)” value (“Disintegrations Per Minute” for short) ([4]; 0.5 μM salt) of the same compound?
A: Its value is 23603 Disintegrations Per Minute.

Q: What about the “Disintegrations Per Minute” value ([4]; 1 μM salt) of the same compound?
A: Its value is 14161 Disintegrations Per Minute.

Q: And the “Disintegrations Per Minute” value ([4]; 2 μM salt)?
A: Its value is 6847 Disintegrations Per Minute.

Q: What about the “Disintegrations Per Minute” value ([4]; 3 μM salt) of the same compound?
A: The value was 6599 Disintegrations Per Minute.

Q: And the “Disintegrations Per Minute” value ([4]; 4 μM salt)?
A: The value was 5445 Disintegrations Per Minute.

Q: And the “Disintegrations Per Minute” value ([4]; 5 μM salt)?
A: The value was 5139 Disintegrations Per Minute.

Q: And the “Disintegrations Per Minute” value ([4]; 6 μM salt)?
A: Its value is 4382 Disintegrations Per Minute.

Q: And the “Disintegrations Per Minute” value ([4]; 7.5 μM salt)?
A: The value was 3262 Disintegrations Per Minute.

Q: And the “Disintegrations Per Minute” value ([4]; 10 μM salt)?
A: Its value is 2172 Disintegrations Per Minute.

Q: And the “Disintegrations Per Minute” value ([4]; 15 μM salt)?
A: The value was 1101 Disintegrations Per Minute.

Q: And the “Disintegrations Per Minute” value ([4]; 20 μM salt)?
A: Its value is 494 Disintegrations Per Minute.

Q: Which “Partition Coefficient” value [2] does the source give for `CC(=O)N(O)CCCCCNC(=O)CCC(=O)N(O)CCCCCNC(=O)CCC(=O)N(O)CCCCCN` [Example 5, dodecane-1-sulphonate salt of desferrioxamine-B] here?
A: Its value is 0.450.

Q: And the “Partition Coefficient” value [3]?
A: Its value is 0.028.

Q: What does the source list for `CC(=O)N(O)CCCCCNC(=O)CCC(=O)N(O)CCCCCNC(=O)CCC(=O)N(O)CCCCCN` [Example 2, butane-1-sulphonate salt of desferrioxamine-B]?
A: Partition Coefficient [2]: 0.008; Partition Coefficient [3]: 0.006

Q: With `CC(=O)N(O)CCCCCNC(=O)CCC(=O)N(O)CCCCCNC(=O)CCC(=O)N(O)CCCCCN` [Example 3, hexane-1-sulphonate salt of desferrioxamine-B] as the compound, how does the “Partition Coefficient” value [2] read?
A: The value was 0.020.

Q: And the “Partition Coefficient” value [3]?
A: Its value is 0.010.
